Results as given in patent US12157730B2, “Heteroaryl derivative, method for producing same, and pharmaceutical composition comprising same as effective component” (VORONOI INC., priority 2019, dated 2024).

The molecules below were run against T1, Ba/F3 cell EGFR Exon20 ins NPH (Homo sapiens, UniProt P00533, INS773NPH) (assay: Ba/F3 cell proliferation suppression, EGFR Exon20 ins NPH). Details: GI50 class; Ba/F3 cell line with NPH inserted at Exon20 of EGFR; 72 hours.
T1 construct: expressed in transfected cells; host or cells: Ba/F3
Format: cell-based
How it was run: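 After 72 h compound exposure (twelve 3-fold steps, 0.3 nM–50 um final), live cells were measured by CellTiter-Glo luminescence and growth expressed as % of control to derive GI50. Cells were seeded at 3000–5000 per well a day earlier; Ba/F3 medium contained IL-3; three repeats.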

Row | SMILES | Ba/F3 (NPH) Activity
1 | C=CC(=O)Nc1cc(Nc2cc(N3OCC[C@@H]3c3cccc(F)c3Cl)ncn2)c(OC)cc1N1CCC(N2CCN(CC)CC2)CC1 [compound 602, N-(5-((6-((R)-3-(2-chloro-3-fluorophenyl)isoxazolidine-2-yl)pyrimidine-4-yl)amino)-2-(4-(4-thylpiperazine-1-yl)piperidine-1-yl)-4-methoxyphenyl) acrylamide] | A (GI50 < 50 nM)
2 | C=CC(=O)Nc1cc(Nc2cc(N3OCC[C@@H]3c3cc(F)ccc3F)ncn2)c(OC)cc1N1CCC(N2CCN(CC3CC3)CC2)CC1 [Example 93, N-(2-(4-(4-(cyclopropylmethyl)piperazine-1-yl)piperidine-1-yl)-5-((6-((R)-3-(2,5-difluorophenyl)isoxazolidine-2-yl)pyrimidine-4-yl)amino)-4-methoxyphenyl) acrylamide] | A (GI50 < 50 nM)
3 | C=CC(=O)Nc1cc(Nc2cc(N3OCC[C@H]3Cc3cccnc3)ncn2)c(OC)cc1N1CCC(N2CCN(C3CC3)CC2)CC1 [compound 988, N-(2-(4-(4-cyclopropylpiperazine-1-yl)piperidine-1-yl)-4-methoxy-5-((6-((R)-3-(pyridine-3-ylmethyl)isoxazolidine-2-yl)pyrimidine-4-yl)amino)phenyl) acrylamide] | B (50 nM ≤ GI50 < 500 nM)
4 | C=CC(=O)Nc1cc(Nc2cc(N3OCC[C@@H]3c3c(F)ccc(F)c3Cl)ncn2)c(OC)cc1N1CCC(N2C[C@@H]3C[C@H]2CO3)CC1 [compound 693, N-(2-(4-((1S,4S)-2-oxa-5-azabicyclo[2.2.1]heptane-5-yl)piperidine-1-yl)-5-((6-((R)-3-(2-chloro-3,6-difluorophenyl)isoxazolidine-2-yl)pyrimidine-4-yl)amino)-4-methoxyphenyl) acrylamide] | A (GI50 < 50 nM)
5 | C=CC(=O)Nc1cc(Nc2cc(N3OCC[C@@H]3c3cccc(F)c3Cl)ncn2)c(OC)cc1N1CCC(N2CCN(C3CC3)C[C@@H]2C)CC1 [Example 144, N-(5-((6-((R)-3-(2-chloro-3-fluorophenyl)isoxazolidine-2-yl)pyrimidine-4-yl)amino)-2-(4-((S)-4-cyclopropyl-2-methylpiperazine-1-yl)piperidine-1-yl)-4-methoxyphenyl) acrylamide] | A (GI50 < 50 nM)
6 | C=CC(=O)Nc1cc(Nc2cc(N3OCC[C@@H]3c3ccc(F)cc3F)ncn2)c(OC)cc1N1CCC(N2CCC(N3CCN(C)CC3)CC2)CC1 [compound 477, N-(5-((6-((R)-3-(2,4-difluorophenyl)isoxazolidine-2-yl)pyrimidine-4-yl)amino)-4-methoxy-2-(4-(4-methylpiperazine-1-yl)-[1,4'-bipiperidine]-1'-yl)phenyl)acrylamide] | A (GI50 < 50 nM)
7 | C=CC(=O)Nc1cc(Nc2cc(N3OCC[C@@H]3c3ccc(F)c(F)c3)ncn2)c(OC)cc1N1CCC(N2C[C@@H](C)O[C@@H](C)C2)CC1 [compound 543, N-(5-((6-((R)-3-(3,4-difluorophenyl)isoxazolidine-2-yl)pyrimidine-4-yl)amino)-2-(4-((2S,6R)-2,6-dimethylmorpholino)piperidine-1-yl)-4-methoxyphenyl) acrylamide] | A (GI50 < 50 nM)
8 | C=CC(=O)Nc1cc(Nc2cc(N3OCC[C@@H]3c3cccc(Cl)c3C)ncn2)c(OC)cc1N1CCC(N2CCN(C)CC2)CC1 [compound 485, N-(5-((6-((R)-3-(3-chloro-2-methylphenyl)isoxazolidine-2-yl)pyrimidine-4-yl)amino)-4-methoxy-2-(4-(4-methylpiperazine-1-yl)piperidine-1-yl)phenyl) acrylamide] | A (GI50 < 50 nM)
9 | C=CC(=O)Nc1cc(Nc2cc(N3OCC[C@H]3Cc3ccccc3)ncn2)c(OC)cc1N1CCN(C2CCN(C)CC2)CC1 [compound 974, N-(5-((6-((R)-3-benzylisoxazolidine-2-yl)pyrimidine-4-yl)amino)-4-methoxy-2-(4-(1-methylpiperidine-4-yl)piperazine-1-yl)phenyl)acrylamide] | C (500 nM ≤ GI50 < 5000 nM)
10 | C=CC(=O)Nc1cc(Nc2cc(N3OCC[C@@H]3c3ccc(F)c(Cl)c3)ncn2)c(OC)cc1N1CCC(N2C[C@@H](C)N(CC)[C@@H](C)C2)CC1 [compound 370, N-(5-((6-((R)-3-(3-chloro-4-fluorophenyl)isoxazolidine-2-yl)pyrimidine-4-yl)amino)-2-(4-((3S,5R)-4-ethyl-3,5-dimethylpiperazine-1-yl)piperidine-1-yl)-4-methoxyphenyl) acrylamide] | A (GI50 < 50 nM)
11 | C=CC(=O)Nc1cc(Nc2cc(N3OCC[C@@H]3c3ccc(F)cc3)ncn2)c(OC)cc1N1CCC(N2C[C@H]3C[C@@H]2CO3)CC1 [compound 813, N-(2-(4-((1R,4R)-2-oxa-5-azabicyclo [2.2.1]heptane-5-yl)piperidine-1-yl)-5-((6-((R)-3-(4-fluorophenyl)isoxazolidine-2-yl)pyrimidine-4-yl)amino)-4-methoxyphenyl) acrylamide] | A (GI50 < 50 nM)
12 | C=CCN1CCN(C2CCN(c3cc(OC)c(Nc4cc(N5OCC[C@@H]5c5ccc(F)c(Cl)c5)ncn4)cc3NC(=O)C=C)CC2)CC1 [Example 89, N-(2-(4-(4-allylpiperazine-1-yl)piperidine-1-yl)-5-((6-((R)-3-(3-chloro-4-fluorophenyl)isoxazolidine-2-yl)pyrimidine-4-yl)amino)-4-methoxyphenyl) acrylamide] | A (GI50 < 50 nM)
13 | C=CC(=O)Nc1cc(Nc2cc(N3OCC[C@@H]3c3ccc(Cl)c(F)c3)ncn2)c(OC)cc1N1CCN(C2CC2)CC1 [compound 364, N-(5-((6-((R)-3-(4-chloro-3-fluorophenyl)isoxazolidine-2-yl)pyrimidine-4-yl)amino)-2-(4-cyclopropylpiperazine-1-yl)-4-methoxyphenyl) acrylamide] | A (GI50 < 50 nM)
14 | C=CC(=O)Nc1cc(Nc2cc(N3OCC[C@@H]3c3ccc(Cl)c(Cl)c3F)ncn2)c(OC)cc1N1CCC(N2CC[C@H](N(C)C)C2)CC1 [compound 772, N-(5-((6-((R)-3-(3,4-dichloro-2-fluorophenyl)isoxazolidine-2-yl)pyrimidine-4-yl)amino)-2-(4-((S)-3-(dimethylamino)pyrolidine-1-yl)piperidine-1-yl)-4-methoxyphenyl) acrylamide] | B (50 nM ≤ GI50 < 500 nM)
15 | C=CC(=O)Nc1cc(Nc2cc(N3OCC[C@@H]3c3cc(F)ccc3F)ncn2)c(OC)cc1N1CCN(C2CC2)CC1 [compound 299, N-(2-(4-cyclopropylpiperazine-1-yl)-5-((6-((R)-3-(2,5-difluorophenyl)isoxazolidine-2-yl)pyrimidine-4-yl)amino)-4-methoxyphenyl) acrylamide] | A (GI50 < 50 nM)
16 | C=CC(=O)Nc1cc(Nc2cc(N3OCC[C@@H]3c3ccc(F)c(Cl)c3F)ncn2)c(OC)cc1N1CCC(N2CCN(C(C)C)CC2)CC1 [compound 668, N-(5-((6-((R)-3-(3-chloro-2,4-difluorophenyl)isoxazolidine-2-yl)pyrimidine-4-yl)amino)-2-(4-(4-isopropylpiperazine-1-yl)piperidine-1-yl)-4-methoxyphenyl) acrylamide] | B (50 nM ≤ GI50 < 500 nM)
17 | C=CC(=O)Nc1cc(Nc2cc(N3OCC[C@@H]3c3cc(F)ccc3F)ncn2)c(OC)cc1N1CCN(C(C)=O)CC1 [compound 298, N-(2-(4-acetylpiperazine-1-yl)-5-((6-((R)-3-(2,5-difluorophenyl)isoxazolidine-2-yl)pyrimidine-4-yl)amino)-4-methoxyphenyl) acrylamide] | A (GI50 < 50 nM)
18 | C=CC(=O)Nc1cc(Nc2cc(N3OCC[C@@H]3c3ccc(F)c(F)c3)ncn2)c(OC)cc1N1CCC(N2C[C@H]3C[C@@H]2CO3)CC1 [compound 498, N-(2-(4-((1R,4R)-2-oxa-5-azabicyclo[2.2.1]heptane-5-yl)piperidine-1-yl)-5-((6-((R)-3-(3,4-difluorophenyl)isoxazolidine-2-yl)pyrimidine-4-yl)amino)-4-methoxyphenyl) acrylamide] | A (GI50 < 50 nM)
19 | C=CC(=O)Nc1cc(Nc2cc(N3OCC[C@@H]3c3cccc(F)c3)ncn2)c(OC)cc1N(C)CCOC [compound 838, N-(5-((6-((R)-3-(3-fluorophenyl)isoxazolidine-2-yl)pyrimidine-4-yl)amino)-4-methoxy-2-((2-methoxyethyl)(methyl)amino)phenyl) acrylamide] | A (GI50 < 50 nM)
20 | C=CC(=O)Nc1cc(Nc2cc(N3OCC[C@@H]3c3cccc(C#N)c3)ncn2)c(OC)cc1N1CCC(N2CCOCC2)CC1 [compound 400, N-(5-((6-((R)-3-(3-cyanophenyl)isoxazolidine-2-yl)pyrimidine-4-yl)amino)-4-methoxy-2-(4-morpholinopiperidine-1-yl)phenyl)acrylamide] | A (GI50 < 50 nM)
21 | C=CC(=O)Nc1cc(Nc2cc(N3OCC[C@@H]3c3ccc(F)c(Cl)c3)ncn2)c(OC)cc1N1CCC(N2C[C@H](C)N(C3CC3)C[C@@H]2C)CC1 [Example 121, N-(5-((6-((R)-3-(3-chloro-4-fluorophenyl)isoxazolidine-2-yl)pyrimidine-4-yl)amino)-2-(4-((2S,5S)-4-cyclopropyl-2,5-dimethylpiperazine-1-yl)piperidine-1-yl)-4-methoxyphenyl) acrylamide] | A (GI50 < 50 nM)
22 | C=CC(=O)Nc1cc(Nc2cc(N3OCC[C@@H]3c3cc(F)ccc3F)ncn2)c(OC)cc1N1CCC(N2C[C@@H](C)N(C3CC3)C[C@H]2C)CC1 [Example 172, N-(2-(4-((2R,5R)-4-cyclopropyl-2,5-dimethylpiperazine-1-yl)piperidine-1-yl)-5-((6-((R)-3-(2,5-difluorophenyl)isoxazolidine-2-yl)pyrimidine-4-yl)amino)-4-methoxypheny) acrylamide] | A (GI50 < 50 nM)
